Values of other authors as cited in publication PMC9516332 (Frontiers in Oncology, 2022).
Like-named read-outs stand apart in the source and are kept apart here.

What was measured:
Details in all cases: cited from earlier work
[1] = target: T1, panel of 255 wild-type kinases (Homo sapiens, UniProt O00141)
T1 sequence (O00141 1-431): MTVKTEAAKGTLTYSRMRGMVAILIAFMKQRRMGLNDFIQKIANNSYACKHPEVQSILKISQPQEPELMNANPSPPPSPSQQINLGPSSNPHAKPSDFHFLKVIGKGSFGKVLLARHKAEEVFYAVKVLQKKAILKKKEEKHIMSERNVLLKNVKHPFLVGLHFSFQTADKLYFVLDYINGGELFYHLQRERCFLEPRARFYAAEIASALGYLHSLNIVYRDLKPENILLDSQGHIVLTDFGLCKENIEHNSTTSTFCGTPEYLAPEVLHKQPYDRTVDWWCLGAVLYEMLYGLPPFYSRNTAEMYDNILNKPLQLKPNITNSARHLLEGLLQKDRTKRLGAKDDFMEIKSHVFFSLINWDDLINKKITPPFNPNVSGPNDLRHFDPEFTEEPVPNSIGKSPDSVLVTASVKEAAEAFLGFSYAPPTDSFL

[2] = target: T2, panel of 255 wild-type kinases (Homo sapiens, UniProt Q9UHD2)
T2 sequence (Q9UHD2 1-729): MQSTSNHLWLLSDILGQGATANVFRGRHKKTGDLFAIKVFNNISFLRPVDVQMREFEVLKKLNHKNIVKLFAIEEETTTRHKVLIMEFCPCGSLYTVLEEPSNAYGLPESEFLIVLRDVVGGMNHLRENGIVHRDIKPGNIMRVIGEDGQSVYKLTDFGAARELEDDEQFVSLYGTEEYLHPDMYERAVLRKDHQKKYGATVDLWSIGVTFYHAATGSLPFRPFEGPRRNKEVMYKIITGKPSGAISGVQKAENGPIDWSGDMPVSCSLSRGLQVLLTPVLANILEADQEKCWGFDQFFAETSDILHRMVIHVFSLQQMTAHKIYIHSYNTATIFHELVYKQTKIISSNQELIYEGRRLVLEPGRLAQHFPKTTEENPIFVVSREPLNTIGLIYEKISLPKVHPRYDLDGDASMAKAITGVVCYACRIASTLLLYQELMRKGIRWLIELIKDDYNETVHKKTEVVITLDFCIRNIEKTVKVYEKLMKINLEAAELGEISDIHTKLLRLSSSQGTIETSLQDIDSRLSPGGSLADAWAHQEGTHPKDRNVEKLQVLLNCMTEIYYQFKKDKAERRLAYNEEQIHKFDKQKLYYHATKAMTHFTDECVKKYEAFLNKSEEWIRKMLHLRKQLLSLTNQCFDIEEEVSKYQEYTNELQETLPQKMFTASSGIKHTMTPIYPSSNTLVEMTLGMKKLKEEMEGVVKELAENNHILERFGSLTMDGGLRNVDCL

[3] = target: panel of 255 wild-type kinases (Homo sapiens, UniProt Q02763)
[4] = target: panel of 255 wild-type kinases (Homo sapiens, UniProt Q9NYY3)
[5] = target: panel of 255 wild-type kinases (Homo sapiens, UniProt Q9NYA1)
[6] = target: panel of 255 wild-type kinases (Homo sapiens, UniProt Q9HC98)
[7] = target: T3, panel of 255 wild-type kinases (Homo sapiens, UniProt Q8NE63)
T3 sequence (Q8NE63 1-616): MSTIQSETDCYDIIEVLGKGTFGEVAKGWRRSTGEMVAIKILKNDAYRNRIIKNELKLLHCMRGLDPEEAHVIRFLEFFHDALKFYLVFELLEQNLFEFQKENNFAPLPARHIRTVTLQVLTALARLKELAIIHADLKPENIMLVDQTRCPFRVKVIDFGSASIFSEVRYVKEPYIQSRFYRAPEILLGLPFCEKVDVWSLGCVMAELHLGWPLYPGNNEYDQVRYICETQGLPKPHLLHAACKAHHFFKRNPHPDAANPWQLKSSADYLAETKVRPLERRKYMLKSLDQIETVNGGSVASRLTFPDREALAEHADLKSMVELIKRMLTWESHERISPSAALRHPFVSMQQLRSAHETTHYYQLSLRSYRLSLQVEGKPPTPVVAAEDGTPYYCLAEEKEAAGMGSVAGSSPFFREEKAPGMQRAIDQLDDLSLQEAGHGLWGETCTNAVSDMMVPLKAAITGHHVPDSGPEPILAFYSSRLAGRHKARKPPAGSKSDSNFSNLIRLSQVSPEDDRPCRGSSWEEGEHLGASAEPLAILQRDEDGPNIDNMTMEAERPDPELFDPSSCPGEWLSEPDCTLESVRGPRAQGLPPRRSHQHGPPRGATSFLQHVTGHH

[8] = target: panel of 255 wild-type kinases (Homo sapiens, UniProt P06239)
[9] = kinase SGK, 1 µmol/L single concentration, ref DOI: 10.1371/journal.pone.0092146
[10] = kinase TBK1, 1 µmol/L single concentration, ref DOI: 10.1371/journal.pone.0092146
[11] = kinase TIE2, 1 µmol/L single concentration, ref DOI: 10.1371/journal.pone.0092146
[12] = kinase PLK2, 1 µmol/L single concentration, ref DOI: 10.1371/journal.pone.0092146
[13] = kinase SPHK1, 1 µmol/L single concentration, ref DOI: 10.1371/journal.pone.0092146
[14] = NEK6, 1 µmol/L single concentration, ref DOI: 10.1371/journal.pone.0092146
[15] = kinase HIPK4, 1 µmol/L single concentration, ref DOI: 10.1371/journal.pone.0092146
[16] = kinase LCK, 1 µmol/L single concentration, ref DOI: 10.1371/journal.pone.0092146
[17] = kinase SGK, 1 µmol/L single concentration, ref DOI: 10.1158/1535-7163.MCT-18-0877
[18] = kinase TBK1, 1 µmol/L single concentration, ref DOI: 10.1158/1535-7163.MCT-18-0877
[19] = kinase TIE2, 1 µmol/L single concentration, ref DOI: 10.1158/1535-7163.MCT-18-0877
[20] = kinase PLK2, 1 µmol/L single concentration, ref DOI: 10.1158/1535-7163.MCT-18-0877
[21] = kinase SPHK1, 1 µmol/L single concentration, ref DOI: 10.1158/1535-7163.MCT-18-0877
[22] = NEK6, 1 µmol/L single concentration, ref DOI: 10.1158/1535-7163.MCT-18-0877
[23] = kinase HIPK4, 1 µmol/L single concentration, ref DOI: 10.1158/1535-7163.MCT-18-0877
[24] = kinase LCK, 1 µmol/L single concentration, ref DOI: 10.1158/1535-7163.MCT-18-0877

Structure (SMILES)	%-inhibition at 1 µmol/L, SGK [1, 9] [%]	%-inhibition at 1 µmol/L, TBK1 [2, 10] [%]	%-inhibition at 1 µmol/L, TIE2 [3, 11] [%]	%-inhibition at 1 µmol/L, PLK2 [4, 12] [%]	%-inhibition at 1 µmol/L, SPHK1 [5, 13] [%]	%-inhibition, NEK6 [6, 14] [%]	%-inhibition at 1 µmol/L, HIPK4 [7, 15] [%]	%-inhibition at 1 µmol/L, LCK [8, 16] [%]	%-inhibition at 1 µmol/L, SGK [1, 17] [%]	%-inhibition at 1 µmol/L, TBK1 [2, 18] [%]	%-inhibition at 1 µmol/L, TIE2 [3, 19] [%]	%-inhibition at 1 µmol/L, PLK2 [4, 20] [%]	%-inhibition at 1 µmol/L, SPHK1 [5, 21] [%]	%-inhibition, NEK6 [6, 22] [%]	%-inhibition at 1 µmol/L, HIPK4 [7, 23] [%]	%-inhibition at 1 µmol/L, LCK [8, 24] [%]	further results
CCCS(=O)(=O)Nc1ccc(F)c(C(=O)c2c[nH]c3ncc(-c4ccc(Cl)cc4)cc23)c1F [vemurafenib]	-0.122	-0.81	-2.42	-1.85	-11	-1.43	-0.437	81									
CC(=O)Nc1cccc(-n2c(=O)n(C3CC3)c(=O)c3c(Nc4ccc(I)cc4F)n(C)c(=O)c(C)c32)c1 [trametinib]	0.217	-4.47	-7	-1.65	-11	-0.324	2.78	-7									
CCc1cc2c(cc1N1CCC(N3CCOCC3)CC1)C(C)(C)c1[nH]c3cc(C#N)ccc3c1C2=O [alectinib]									12	6	2	6	-10	1.43	26	20	
CC(C)(C)c1nc(-c2cccc(NS(=O)(=O)c3c(F)cccc3F)c2F)c(-c2ccnc(N)n2)s1 [dabrafenib]	4	-1.15	81	-4.64	-18	-3	92	83									
CC#CC(=O)N1CCC[C@H]1c1nc(-c2ccc(C(=O)Nc3ccccn3)cc2)c2c(N)nccn12 [acalabrutinib]									-5	2.14	-5.36	2.47	-3	-5.54	-10	7	
O=C(c1ccc(F)c(F)c1Nc1ccc(I)cc1F)N1CC(O)([C@@H]2CCCCN2)C1 [cobimetinib]									-19	4	19	-0.309	-5.63	1.81	1.8	-3	
C=CC(=O)Nc1cc(Nc2nccc(-c3cn(C)c4ccccc34)n2)c(OC)cc1N(C)CCN(C)C [osimertinib]									-11	9	3.73	1.06	9	0.319	92	3.62	
Cc1cc(Nc2ncc(Cl)c(Nc3ccccc3S(=O)(=O)C(C)C)n2)c(OC(C)C)cc1C1CCNCC1 [ceritinib]									2	4	-13	-3.54	-13	0.593	36	6	
CO[C@@H]1[C@H](N(C)C(=O)c2ccccc2)C[C@H]2O[C@]1(C)n1c3ccccc3c3c4c(c5c6ccccc6n2c5c31)C(=O)NC4 [midostaurin]									31	98	30	2.68	-2.46	-8	63	91	
COc1cc(N2CCC(N3CCN(C)CC3)CC2)ccc1Nc1ncc(Cl)c(Nc2ccccc2P(C)(C)=O)n1 [brigatinib]																	%-inhibition at 1 µmol/L, SGK [1]: 4.76%; %-inhibition at 1 µmol/L, TBK1 [2]: 23%; %-inhibition at 1 µmol/L, TIE2 [3]: 75%; %-inhibition at 1 µmol/L, PLK2 [4]: 0.275%; %-inhibition at 1 µmol/L, SPHK1 [5]: -4%; %-inhibition, NEK6 [6]: 0.534%; %-inhibition at 1 µmol/L, HIPK4 [7]: 81%; %-inhibition at 1 µmol/L, LCK [8]: 77%
C=CC(=O)N1CCC[C@@H](n2nc(-c3ccc(Oc4ccccc4)cc3)c3c(N)ncnc32)C1 [ibrutinib]									-21	0.825	29	1.72	-3.38	0.77	2.6	100	
C[C@@H](Oc1cc(-c2cnn(C3CCNCC3)c2)cnc1N)c1c(Cl)ccc(F)c1Cl [crizotinib]	1.46	1.42	83	1.1	-14	-2.72	31	98									
